Data from patent US7671061B2, “Methods and compositions for treating pain” (Hydra Biosciences, Inc., priority 2005, dated 2010).

Biological target: T1, hTRPA1 (Homo sapiens, UniProt O75762, K186N)
T1 construct: expressed in transfected cells; host or cells: HEK293/TREx (Invitrogen), induced with tetracycline
Assay: High throughput Ca2+ fluorescence (Fluo4) assay, AITC stimulation
Assay type: cell-based
Conditions: Table 2; read-out: hTRPA1 Fluor IC50
Text: The assay depended on detection of the rise in intracellular Ca^2+ concentration ([Ca^2+]i) following channel activation in cells inducibly expressing the TRPA1 channel. Ca^2+ rise was quantified with the use of fluorescent Ca^2+ indicators that were loaded into cells and thereafter indicated the [Ca^2+]i. Ca^2+ influx followed activation of the TRPA1 channel. Compounds inhibiting the [Ca^2+]i rise were considered hits for further investigation.
These cells were maintained in the growth medium recommended by the manufacturer supplemented with 100 μg/ml hygromycin to promote retention of the TRPA1 construct. After growing to near confluency, cells were plated at a density of ˜25,000 cells/well in 384 well CellBind plates (Corning) in the presence of 1 μg/ml tetracycline, and allowed to grow for 20-30 hrs. A nearly confluent monolayer resulted. Cells were then loaded with Ca^2+ dye: Fura-2/AM or Fluo4/AM was added to the wells to a final concentration of 2 μM or 1 μM, respectively, and incubated for 80 min or 60 min, respectively, at room temperature. […] Frames were acquired at a rate of 0.2 Hz. During the assay, the plates were continuously […], with pipette mixing of wells following addition of each reagent. For the screening assay, 13 μl of a diluted stock (at 50 μM) was added to each well for 2 minutes following the collection of a short (4 frame) baseline. […] Data was collected for ˜3 minutes following addition of AITC, where the fluorescent intensity (for Fluo4) and the F340/F380 ratio (for Fura-2) were proportional to the [Ca^2+]i. Negative controls consisted of HEK293/TREx TRPA1 cells exposed to AITC, but no compound. […] These controls defined a screening window, and “hits” were defined as those compounds inhibiting the fluorescence response by at least 40%. IC50 values were determined for compounds defined as “hits.” The Fluo4 cell-based fluorescence assay was used to determine the intracellular Ca^2+ concentration in the presence of varying drug concentration. […] Compounds were tested in triplicate at all concentrations. Standard software was used to fit IC50 curves.

T1 sequence (O75762 whole entry K186N): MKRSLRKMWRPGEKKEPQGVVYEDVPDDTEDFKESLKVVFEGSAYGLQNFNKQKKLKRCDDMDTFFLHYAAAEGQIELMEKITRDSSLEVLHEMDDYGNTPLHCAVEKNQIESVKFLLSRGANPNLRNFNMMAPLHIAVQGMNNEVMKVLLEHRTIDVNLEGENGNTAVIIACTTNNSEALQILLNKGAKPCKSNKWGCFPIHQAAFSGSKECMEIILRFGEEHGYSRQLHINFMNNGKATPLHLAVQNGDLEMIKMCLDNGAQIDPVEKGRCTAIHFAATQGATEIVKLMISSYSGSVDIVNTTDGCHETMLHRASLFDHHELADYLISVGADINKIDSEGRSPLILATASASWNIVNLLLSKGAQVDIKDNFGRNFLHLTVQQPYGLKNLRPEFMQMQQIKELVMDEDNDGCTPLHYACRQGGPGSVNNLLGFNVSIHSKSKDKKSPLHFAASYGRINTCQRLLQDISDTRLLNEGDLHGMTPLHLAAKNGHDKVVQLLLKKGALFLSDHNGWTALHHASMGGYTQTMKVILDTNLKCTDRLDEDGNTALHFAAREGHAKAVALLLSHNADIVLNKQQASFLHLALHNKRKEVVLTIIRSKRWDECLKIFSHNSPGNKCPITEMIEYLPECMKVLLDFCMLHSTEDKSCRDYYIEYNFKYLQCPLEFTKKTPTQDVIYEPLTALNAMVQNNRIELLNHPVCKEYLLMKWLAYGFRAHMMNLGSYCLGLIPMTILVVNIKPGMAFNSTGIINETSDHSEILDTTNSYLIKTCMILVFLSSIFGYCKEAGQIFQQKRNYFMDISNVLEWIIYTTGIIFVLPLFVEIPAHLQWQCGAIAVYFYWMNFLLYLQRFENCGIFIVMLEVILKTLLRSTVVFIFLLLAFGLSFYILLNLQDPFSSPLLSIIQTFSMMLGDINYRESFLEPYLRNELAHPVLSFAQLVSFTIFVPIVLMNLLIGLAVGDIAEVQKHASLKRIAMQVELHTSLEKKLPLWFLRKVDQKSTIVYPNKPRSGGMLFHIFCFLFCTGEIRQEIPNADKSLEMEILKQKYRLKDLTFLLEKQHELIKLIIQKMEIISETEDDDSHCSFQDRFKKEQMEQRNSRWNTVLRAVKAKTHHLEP

SMILES | IC50 [µM]
Cn1c(=O)c2c(ncn2CC(=O)Nc2ccccc2N2CCOCC2)n(C)c1=O [Compound 248] | > 10
Cn1c(=O)c2c(ncn2CC(=O)Nc2ccccc2Cc2ccccc2)n(C)c1=O [Compound 258] | > 10
Cn1c(=O)c2c(ncn2CC(=O)Nc2ccccc2-c2nc3ccccc3[nH]2)n(C)c1=O [Compound 260] | > 10
Cc1cc(C)c(-c2csc(NC(=O)Cn3cnc4c3c(=O)n(C)c(=O)n4C)n2)c(C)c1 [Compound 272] | > 10
Cn1c(=O)c2c(ncn2CC(=O)NC2CCCCCCC2)n(C)c1=O [Compound 278] | > 10
CC1CCCCC1NC(=O)Cn1cnc2c1c(=O)n(C)c(=O)n2C (stereo not shown) [Compound 279] | > 10
CCN(C(=O)Cn1cnc2c1c(=O)n(C)c(=O)n2C)c1ccccc1 [Compound 283] | > 10
Cn1c(=O)c2c(ncn2CC(=O)N(Cc2ccccc2)CC(F)(F)F)n(C)c1=O [Compound 288] | > 10
CCN(C(=O)Cn1cnc2c1c(=O)n(C)c(=O)n2C)c1ccc(F)cc1 [Compound 291] | ≤ 5
CN(CC(=O)Nc1ccc(F)c(F)c1F)C(=O)Cn1cnc2c1c(=O)n(C)c(=O)n2C [Compound 293] | > 10
CC(C(=O)N(C)c1ccccc1)n1cnc2c1c(=O)n(C)c(=O)n2C (stereo not shown) [Compound 301] | > 10
CC(C(=O)Nc1ccccc1)n1cnc2c1c(=O)n(C)c(=O)n2C (stereo not shown) [Compound 302] | > 10
COc1ccccc1NC(=O)C(C)n1cnc2c1c(=O)n(C)c(=O)n2C (stereo not shown) [Compound 303] | > 10
Cn1c(=O)c2c(ncn2CC(=O)NCC(c2ccco2)N2CCCC2)n(C)c1=O (stereo not shown) [Compound 308] | > 10
CSc1ccccc1NC(=O)CN(C)C(=O)Cn1cnc2c1c(=O)n(C)c(=O)n2C [Compound 311] | > 10
Cn1c(=O)c2c(ncn2CC(=O)NCC(c2cccs2)N2CCCC2)n(C)c1=O (stereo not shown) [Compound 312] | > 10
CC(C(=O)Nc1cc(Cl)cc(Cl)c1)n1cnc2c1c(=O)n(C)c(=O)n2C (stereo not shown) [Compound 314] | ≤ 10
Cn1c(=O)c2c(ncn2CC(=O)NCC(c2ccc(F)cc2)N2CCOCC2)n(C)c1=O (stereo not shown) [Compound 317] | > 10
CC(C(=O)Nc1cccc(C(F)(F)F)c1)n1cnc2c1c(=O)n(C)c(=O)n2C (stereo not shown) [Compound 318] | > 10
Cn1c(=O)c2c(ncn2CC(=O)NCCOc2ccc(C(C)(C)C)cc2)n(C)c1=O [Compound 320] | ≤ 10

SMILES | IC50 [µM]
Cn1c(=O)c2c(ncn2CC(=O)NCC(c2ccccc2)N2CCCC2)n(C)c1=O (stereo not shown) [Compound 321] | > 10
CN(CCCNC(=O)Cn1cnc2c1c(=O)n(C)c(=O)n2C)c1ccccc1 [Compound 322] | > 10
Cc1cc(C)n(CCCNC(=O)Cn2cnc3c2c(=O)n(C)c(=O)n3C)n1 [Compound 323] | > 10
CN(CCOc1ccccc1)C(=O)Cn1cnc2c1c(=O)n(C)c(=O)n2C [Compound 324] | ≥ 20
CC(NC(=O)Cn1cnc2c1c(=O)n(C)c(=O)n2C)c1ccc(-n2ccnc2)cc1 (stereo not shown) [Compound 325] | ≥ 20
CC(C(=O)Nc1ccc(F)cc1)n1cnc2c1c(=O)n(C)c(=O)n2C (stereo not shown) [Compound 327] | > 10
Cc1cccc(NC(=O)C(C)n2cnc3c2c(=O)n(C)c(=O)n3C)c1 (stereo not shown) [Compound 328] | ≥ 30
CC(C(=O)Nc1ccc2c(c1)OCO2)n1cnc2c1c(=O)n(C)c(=O)n2C (stereo not shown) [Compound 331] | > 10
CC(C)C(C)NC(=O)Cn1cnc2c1c(=O)n(C)c(=O)n2C (stereo not shown) [Compound 332] | > 10
CC(C(=O)Nc1ccccc1F)n1cnc2c1c(=O)n(C)c(=O)n2C (stereo not shown) [Compound 334] | > 10
Cn1c(=O)c2c(ncn2CC(=O)NCCc2c[nH]c3ccccc23)n(C)c1=O [Compound 335] | > 10
CC(C)N(C(=O)Cn1cnc2c1c(=O)n(C)c(=O)n2C)c1ccccc1 [Compound 336] | > 10
Cn1c(=O)c2c(ncn2CC(=O)NCc2ccccc2CN2CCOCC2)n(C)c1=O [Compound 337] | > 10
Cn1c(=O)c2c(ncn2CC(=O)Nc2ccccc2C(=O)NC2CC2)n(C)c1=O [Compound 338] | > 10
Cc1nn(Cc2ccccc2)c(C)c1CNC(=O)Cn1cnc2c1c(=O)n(C)c(=O)n2C [Compound 339] | > 10
Cn1c(=O)c2c(ncn2CC(=O)Nc2ccnn2C2CCCC2)n(C)c1=O [Compound 340] | > 10
CN(Cc1ccccc1N1CCOCC1)C(=O)Cn1cnc2c1c(=O)n(C)c(=O)n2C [Compound 342] | > 10
Cn1c(=O)c2c(ncn2CC(=O)NC(c2ccc(F)cc2)c2cccs2)n(C)c1=O (stereo not shown) [Compound 343] | > 10
CC(C)C(NC(=O)Cn1cnc2c1c(=O)n(C)c(=O)n2C)c1ccc2c(c1)OCCCO2 (stereo not shown) [Compound 345] | > 10

Second part, the molecule after the results:

IC50 [µM] | SMILES
> 10 | Cn1c(=O)c2c(ncn2CC(=O)NCc2ccccn2)n(C)c1=O [Compound 243]
≤ 10 | Cn1c(=O)c2c(ncn2CC(=O)Nc2ccc(F)c(F)c2)n(C)c1=O [Compound 245]
> 10 | Cn1c(=O)c2c(ncn2CC(=O)Nc2ccc3c(c2)OCCO3)n(C)c1=O [Compound 246]
≤ 5 | Cn1c(=O)c2c(ncn2CC(=O)Nc2ccc(N3CCOCC3)cc2)n(C)c1=O [Compound 247]
≥ 20 | COc1ccc(Nc2ccc(NC(=O)Cn3cnc4c3c(=O)n(C)c(=O)n4C)cc2)cc1 [Compound 249]
> 10 | COc1cc2c(cc1NC(=O)Cn1cnc3c1c(=O)n(C)c(=O)n3C)oc1ccccc12 [Compound 253]
> 10 | CCn1c2ccccc2c2cc(NC(=O)Cn3cnc4c3c(=O)n(C)c(=O)n4C)ccc21 [Compound 254]
≥ 20 | Cc1cc(NC(=O)Cn2cnc3c2c(=O)n(C)c(=O)n3C)n(-c2ccccc2)n1 [Compound 255]
> 10 | Cn1c(=O)c2c(ncn2CC(=O)NCCOC(=O)c2ccc(Cl)cc2)n(C)c1=O [Compound 256]
> 10 | Cc1ccc(NC(=O)Cn2cnc3c2c(=O)n(C)c(=O)n3C)cc1 [Compound 259]
> 10 | Cc1ccc(NC(=O)Cn2cnc3c2c(=O)n(C)c(=O)n3C)c(Cl)c1 [Compound 263]
≥ 20 | Cc1ccc(NC(=O)Cn2cnc3c2c(=O)n(C)c(=O)n3C)c(Br)c1 [Compound 265]
> 10 | Cc1ccc(-c2csc(NC(=O)Cn3cnc4c3c(=O)n(C)c(=O)n4C)n2)cc1C [Compound 270]
≤ 10 | CC(C)N(c1ccccc1)c1ccc(NC(=O)Cn2cnc3c2c(=O)n(C)c(=O)n3C)cc1 [Compound 273]
> 10 | Cn1c(=O)c2c(ncn2CC(=O)NCc2cccc(C(F)(F)F)c2)n(C)c1=O [Compound 275]
> 10 | Cn1c(=O)c2c(ncn2CC(=O)Nc2ccc(F)c(F)c2F)n(C)c1=O [Compound 276]
≤ 10 | COc1ccc(NC(=O)Cn2cnc3c2c(=O)n(C)c(=O)n3C)cc1Cl [Compound 280]

IC50 [µM] | SMILES
≤ 10 | CSc1cccc(NC(=O)Cn2cnc3c2c(=O)n(C)c(=O)n3C)c1 [Compound 282]
> 10 | Cn1c(=O)c2c(ncn2CC(=O)NCc2cccc(Cl)c2)n(C)c1=O [Compound 286]
≤ 10 | Cc1sc(NC(=O)Cn2cnc3c2c(=O)n(C)c(=O)n3C)nc1-c1ccc(Cl)cc1 [Compound 287]
> 10 | Cn1c(=O)c2c(ncn2CC(=O)NC(C)(C)C)n(C)c1=O [Compound 289]
≤ 10 | COC(=O)c1cccc(NC(=O)Cn2cnc3c2c(=O)n(C)c(=O)n3C)c1 [Compound 290]
> 10 | Cc1ccc(NC(=O)NC(=O)Cn2cnc3c2c(=O)n(C)c(=O)n3C)c(C)c1 [Compound 292]
> 10 | CC(C(=O)Nc1cccc(Cl)c1)n1cnc2c1c(=O)n(C)c(=O)n2C (stereo not shown) [Compound 297]
> 10 | Cc1cc(Cl)ccc1NC(=O)Cn1cnc2c1c(=O)n(C)c(=O)n2C [Compound 298]
≤ 5 | Cn1c(=O)c2c(ncn2CC(=O)Nc2ccc(Cl)cc2F)n(C)c1=O [Compound 304]
> 10 | Cc1ccc(NC(=O)Cn2cnc3c2c(=O)n(C)c(=O)n3C)cc1F [Compound 306]
> 10 | CC(=O)c1ccccc1NC(=O)Cn1cnc2c1c(=O)n(C)c(=O)n2C [Compound 309]
> 10 | CC(NC(=O)Cn1cnc2c1c(=O)n(C)c(=O)n2C)c1ccc2c(c1)OCCO2 (stereo not shown) [Compound 310]
> 10 | CSc1ccccc1NC(=O)Cn1cnc2c1c(=O)n(C)c(=O)n2C [Compound 316]
> 10 | COc1ccc(CNC(=O)Cn2cnc3c2c(=O)n(C)c(=O)n3C)cc1OC [Compound 319]
≤ 10 | Cn1c(=O)c2c(ncn2CC(=O)Nc2ccc3c(c2)OCCCO3)n(C)c1=O [Compound 326]
> 10 | Cc1cc(C)c(NC(=O)Cn2cnc3c2c(=O)n(C)c(=O)n3C)c(Cl)c1 [Compound 330]
> 10 | Cn1c(=O)c2c(ncn2CC(=O)Nc2ncc(Cl)cc2Cl)n(C)c1=O [Compound 341]
